In article PMC4501119, “Cholestenoic acid, an endogenous cholesterol metabolite, is a potent γ-secretase modulator” (Molecular Neurodegeneration, 2015):
Where “and” joins values, the source holds several entries; their conditions need not be identical. Equal entries are not always repeated. Entries after “also recorded” stand apart in the source; their conditions may differ.

Tests used:
[1] = system: Aβ42 in CHO-2B7 cells (CHO cells stably overexpressing APP695); test: Cell-based Aβ sandwich ELISA of conditioned media from CHO-2B7 cells treated 16 h; parameters: species or system Chinese hamster
Description: Chinese hamster ovary (CHO) cells stably overexpressing APP695 (CHO-2B7 cells) were grown in Ham’s F-12 medium (Life Technologies) supplemented with 10 % fetal bovine serum and 100 units/ml of penicillin and 100 μg/ml streptomycin. Cells were grown at 37 °C in a humidified atmosphere containing 5 % CO2 in tissue culture plates (Costar). The cells were harvested at confluence and then utilized for biochemical analyses. Compounds were dissolved in dimethyl sulfoxide (DMSO) and screened in CHO-2B7 cells. The cells were incubated for 16 h in the presence of the compound diluted into OptiMEM-reduced serum medium (Life Technologies, Carlsbad, CA, USA) containing 1 % fetal bovine serum.
Monoclonal antibodies to Aβ were generated by the Mayo Clinic Immunology Core facilities (Jacksonville, FL, USA). Ab5 recognizes an epitope in the amino terminus of Aβ (Aβ1-16), recognizes both monomeric and aggregated Aβ, and is human specific. […] Ab 2.1.3 was raised against Aβ35-42 and is specific for Aβx-42. […] Total Aβ level was determined by capture with Ab5 and detected with horseradish peroxidase (HRP)-conjugated 4G8 (a monoclonal antibody against Aβ17-24; Covance, Waltham, MA, USA) with the other Aβ peptides detected with HRP-conjugated Ab5. For the cell-free assay and measuring mouse endogenous Aβ, HRP-conjugated 4G8 was used as the secondary detection antibody. Aβ standards (Bachem, King of Prussia, PA, USA) were prepared by dissolving in hexafluoroisopropanol (HFIP) at 1 mg/ml with sonication, dried under nitrogen, resuspended at 2 mg/ml HFIP, sonicated again and dried under nitrogen. The resulting Aβ was resuspended in 0.01 % ammonium hydroxide, portioned into aliquots in EC buffer, and frozen at −80 °C.

[2] = biological target: T1, γ-secretase (Homo sapiens, UniProt P49768); test: In vitro γ-secretase (broken cell) assay, membranes of H4 neuroglioma cells overexpressing APP695wt, Aβ ELISA; format: biochemical; settings: vs DMSO control, 2 h incubation
T1 construct: The membrane derived from the H4 neuroglioma cells overexpressing APP695wt were prepared by carbonate extraction; endogenous in cells; host or cells: H4 neuroglioma cells overexpressing APP695wt (membranes, carbonate extraction)
Description: Broken cell assays were performed with slight modifications from the previous studies. The membrane derived from the H4 neuroglioma cells overexpressing APP695wt were prepared by carbonate extraction and incubated at 37 °C for 2 h with CA at various concentrations. Aβ levels were quantified by sandwich ELISAs. For Aβ and AICD spectra, the recombinant C100Flag proteins were overexpressed and purified from Escherichia coli BL21 using a HiTrap Q-column (GE Life Science, Little Chalfont, U.K.). The membrane containing γ-secretase was isolated from the CHO S-1 cell line using sodium carbonate (100 mM, pH 11.0). For the in vitro γ-secretase assay, C100Flag recombinant protein at 25 μM was incubated with the membrane (100 μg/mL) in the presence of CA (20 μM) and DMSO in 150 mM sodium citrate buffer (pH 6.8) containing complete protease inhibitor (Roche, Indianapolis, IN) for 2 h at 37 °C.
Monoclonal antibodies to Aβ were generated by the Mayo Clinic Immunology Core facilities (Jacksonville, FL, USA). Ab5 recognizes an epitope in the amino terminus of Aβ (Aβ1-16), recognizes both monomeric and aggregated Aβ, and is human specific. […] Ab 2.1.3 was raised against Aβ35-42 and is specific for Aβx-42. […] For cell-based screens, Aβ was captured from conditioned medium with either Ab5, Ab38, Ab13.1.1, or Ab2.1.3 (coated at 10-50 μg/ml in EC buffer: 5 mM NaH2PO4-H2O, 20 mM Na2HPO4, 400 mM NaCl, 2.5 mM EDTA-full name, 151.5 μM BSA, 813 μM CHAPS, and 7.7 mM NaN3) on Immulon 4HBX Flat-Bottom Microfilter 96-well plates (Thermo Scientific, Waltham, MA, USA). Total Aβ level was determined by capture with Ab5 and detected with horseradish peroxidase (HRP)-conjugated 4G8 (a monoclonal antibody against Aβ17-24; Covance, Waltham, MA, USA) with the other Aβ peptides detected with HRP-conjugated Ab5. For the cell-free assay and measuring mouse endogenous Aβ, HRP-conjugated 4G8 was used as the secondary detection antibody. Aβ standards (Bachem, King of Prussia, PA, USA) were prepared by dissolving in hexafluoroisopropanol (HFIP) at 1 mg/ml with sonication, dried under nitrogen, resuspended at 2 mg/ml HFIP, sonicated again and dried under nitrogen. The resulting Aβ was resuspended in 0.01 % ammonium hydroxide, portioned into aliquots in EC buffer, and frozen at −80 °C. Following these steps, the Aβ is monomeric, as determined by size-exclusion chromatography.

[3] = system: brain mAβ42, mAβ38 and total mAβ; test: Brain Aβ levels after intraperitoneal injection in wild type mice; format: in vivo, mouse (C57BL/6 or CF-1)
Description: 25(R)-CA powder was initially dissolved in DMSO (<4.5 % in the final mixture) and then combined with polyethylene glycol (15)-hydroxystearate (Solutol), ethanol, and water at a ratio of (15:10:75). One molar equivalent of sodium hydroxide was added to the mixture. We performed CA intraperitoneal (IP) injections to wild-type mice (C57BL/6 or CF-1). The mice were injected with 25(R)-CA on the right side of the abdomen. The injections have been performed with various time points (30 min, 1 h, 2 h, and 3 h) and with multiple doses (30 mg per kg (mg/kg), 60 mg/kg, 75 mg/kg and 100 mg/kg). The number of each cohort is 6–8. We used 30 mg/kg of CA for the time-course experiments, and for the dose–response experiments the end-point was set at 30 min. The brains and serum are harvested and frozen for brain Aβ extraction.
The mouse brains were harvested at the age of 3 months. The brains were weighed and recorded. The Diethylamine/Sodium Chloride (DEA/NaCl) extraction buffer (0.4 % DEA) was added to each sample and homogenized using a sonicator. The samples were transferred to a poly-carbonate centrifuge tube and spun down at 50,000xg for 30 min at 4 °C. The supernatant was loaded on the vacuum manifold with the appropriate number of HLB Oasis columns. The samples were loaded on the conditioned column, filtered, and eluted using prepared elution buffer (90 % Methanol, 2 % NH4OH). The eluates are concentrated using the Thermo-Savant SpeedVac concentrator for a minimum of 2 h at 55 °C with radiant heat. The concentrated samples are reconstituted in a blocking buffer (0.67 % Bovine serum albumin (BSA)) at the appropriate volume.
Monoclonal antibodies to Aβ were generated by the Mayo Clinic Immunology Core facilities (Jacksonville, FL, USA). […] Total Aβ level was determined by capture with Ab5 and detected with horseradish peroxidase (HRP)-conjugated 4G8 (a monoclonal antibody against Aβ17-24; Covance, Waltham, MA, USA) with the other Aβ peptides detected with HRP-conjugated Ab5. […] Following these steps, the Aβ is monomeric, as determined by size-exclusion chromatography.

[4] = CHO-2B7 cells, dose response, ELISA

For `CC(CCC[C@@H](C)C(=O)O)[C@H]1CCC2C3CC=C4C[C@@H](O)CC[C@]4(C)C3CC[C@@]21C` (stereo partly drawn) [Cmpd 2a, 25(R)-cholestenoic acid], the Aβ38 level [1, 4] was “increased”, the “total Aβ level” value [1, 4] was “without alterations” and the EC50 ([1]; Cricetulus griseus, CHO-2B7, 16 h, lowering Aβ42, CHO-2B7 cells, 16 h, ELISA) was ~250 nM. For the same compound, the EC90 ([1]; Cricetulus griseus, decreasing Aβ42, CHO-2B7 cells) was 3000 nM, the “change in total Aβ levels” value [2] was “without any significant changes” and the “decrease of Aβ42 production” value ([2]; CA at 150 μM, listed as CA) was 50% and 51%. For the same compound, the “brain Aβ levels” value ([3]; 30 mg/kg IP, brains harvested after 30 min, 1, 2 and 3 h) was “no changes” and the “brain mAβ42, mAβ38 and total mAβ” value ([3]; 30, 60, 75, 100 mg/kg IP, vs vehicle-injected control, listed as CA) was “No significant effects; also recorded: did not show acute effects; also recorded: did not affect”.
